In US12404239B2, “Modulators of BCL6 as ligand directed degraders” (Celgene Corporation, priority 2022, dated 2025):

Molecular target: T1, BCL6 (Homo sapiens, UniProt P41182)
T1 construct: HiBiT-tag knocked into endogenous BCL6 locus using CRISPR; endogenous in cells; host or cells: DHL-4_BCL6_HiBiT cells (CRISPR knock-in)
Experiment: BCL6_HiBiT degradation assay (2 h)
Format: cell-based
Conditions: DHL-4_BCL6_HiBiT cells, read-out: YCon (% remaining maximal effect)
Experimental: A DHL-4 cell line with HiBiT-tag knocked into endogenous BCL6 locus using CRISPR was generated. The DHL-4_BCL6_HiBiT cells were dispensed into 384-well plates (Corning no. 3570) that were pre-spotted with compounds. Compounds were dispensed by an acoustic dispenser (ATS acoustic transfer system from EDC Biosystems) into a 384-well plate in a 10-point dose response curve using 3-fold dilutions starting at 1-10 μM and going down to […]. 25 μL of media (RPMI-1640+10% heat inactivated FBS+1×Pen/Strep) containing 2500 of DHL-4 was dispensed per well. Assay plates were incubated at 37° C. with 5% CO2 for 2 hours. After incubation, 25 μL of the Nano-Glo HiBiT lytic detection working solution (Promega, catalogue no. N3040, Madison, WI) was added to each well and incubated at room temperature for 15-30 min, protected from light. After 30 min, luminescence was read on an Envision or PHERAstar luminescence reader. To determine the EC50 value (the half-maximum effective concentration) and the level of the gradation (Yconstant) of a BCL6 degrader, luminescent signal normalized by DMSO control (Y) and compound concentration (x) was fitted using a four-parameter dose-response model (Y=(A+((B−A)/1+((C/x)^D) in Dotmatics. Fitted value C is the degradation EC50 and the minimum value A is the Y constant.
The degradation of BCL6 at 2 h in DHL-4 results are shown in Table 5, where EC50 is the half maximal effect and Ycon is the % remaining maximal effect.

Row | Percent BCL6 remaining at maximal degradation (Ycon) | Compound
1 | < 20% | C[C@@H]1CN(c2ncc(C#N)c(Nc3cc(F)c4c(c3)CC(=O)N4C)n2)CC[C@H]1Nc1ccc2c(C3CCC(=O)NC3=O)nn(C)c2c1 (stereo partly drawn) [Example 116, 2-((3R,4R)-4-((3-(2,6-dioxopiperidin-3-yl)-1-methyl-1H-indazol-6-yl)amino)-3-methylpiperidin-1-yl)-4-((7-fluoro-1-methyl-2-oxoindolin-5-yl)amino)pyrimidine-5-carbonitrile]
2 | < 20% | C[C@@H]1CN(c2ncc(Cl)c(Nc3ccc4c(c3F)CC(=O)N4C)n2)CC[C@H]1Nc1ccc2c([C@@H]3CCC(=O)NC3=O)nn(C)c2c1 (single isomer, unassigned) [Example 100]
3 | < 20% | C[C@@H]1CN(c2ncc(Cl)c(Nc3ccc4c(c3)CC(=O)N4CCCC(F)(F)F)n2)CC[C@H]1Nc1ccc2c(C3CCC(=O)NC3=O)nn(C)c2c1 (stereo partly drawn) [Example 119, 3-(6-(((3R,4R)-1-(5-chloro-4-((2-oxo-1-(4,4,4-trifluorobutyl)indolin-5-yl)amino)pyrimidin-2-yl)-3-methylpiperidin-4-yl)amino)-1-methyl-1H-indazol-3-yl)piperidine-2,6-dione]
4 | < 20% | C[C@@H]1CN(c2ncc(Cl)c(Nc3ccc4c(c3F)CC(=O)N4C)n2)CC[C@H]1Nc1ccc2c([C@H]3CCC(=O)NC3=O)nn(C)c2c1 (single isomer, unassigned) [Example 99]
5 | < 20% | C[C@@H]1CN(c2ncc(Cl)c(Nc3cc(F)c4c(c3)CC(=O)N4C)n2)CC[C@H]1Nc1ccc2c([C@H]3CCC(=O)NC3=O)nn(C)c2c1 (single isomer, unassigned) [Example 96]
6 | < 20% | C[C@@H]1CN(c2ncc(Cl)c(Nc3ccc4c(c3)CC(=O)N4C)n2)CC[C@H]1Nc1ccc2c(C3(C)CCC(=O)NC3=O)nn(C)c2c1 (stereo partly drawn) [Example 85, 3-(6-(((3R,4R)-1-(5-chloro-4-((1-methyl-2-oxoindolin-5-yl)amino)pyrimidin-2-yl)-3-methylpiperidin-4-yl)amino)-1-methyl-1H-indazol-3-yl)-3-methylpiperidine-2,6-dione]
7 | > 60% | C[C@H]1C[C@H](N(C)c2ccc3c([C@H]4CCC(=O)NC4=O)nn(C)c3c2)CCN1c1ncc(Cl)c(Nc2ccc3c(c2)CC(=O)N3C)n1 (single isomer, unassigned) [Example 87]
8 | > 60% | CCN1C(=O)Cc2cc(Nc3nc(N4CCC(Nc5ccc6c([C@H]7CCC(=O)NC7=O)nn(C)c6c5)CC4)ncc3Cl)ccc21 (single isomer, unassigned) [Example 90]
9 | < 20% | C[C@@H]1CN(c2ncc(Cl)c(Nc3cc(F)c4c(c3)CC(=O)N4C)n2)CC[C@H]1Nc1ccc2c([C@@H]3CCC(=O)NC3=O)nn(C)c2c1 (single isomer, unassigned) [Example 97]
10 | 20 to 60% | CO[C@@H]1CN(c2nc(F)c(Cl)c(Nc3ccc4c(c3)CC(=O)N4C)n2)CC[C@H]1Nc1ccc2c(N3CCC(=O)NC3=O)nn(C)c2c1 [Example 158, 1-(6-(((3R,4R)-1-(5-chloro-4-fluoro-6-((1-methyl-2-oxoindolin-5-yl)amino)pyrimidin-2-yl)-3-methoxypiperidin-4-yl)amino)-1-methyl-1H-indazol-3-yl) dihydropyrimidine-2,4(1H,3H)-dione]
11 | > 60% | CN1C(=O)Cc2cc(Nc3nc(NC4CCN(c5ccc6c(N7CCC(=O)NC7=O)nn(C)c6c5)CC4)ncc3Cl)ccc21 [Example 133, 1-(6-(4-((5-chloro-4-((1-methyl-2-oxoindolin-5-yl)amino)pyrimidin-2-yl)amino)piperidin-1-yl)-1-methyl-1H-indazol-3-yl)dihydropyrimidine-2,4(1H,3H)-dione]
12 | 20 to 60% | C[C@@H]1CN(c2ncc(Cl)c(Nc3cnc4c(c3)CC(=O)N4C)n2)CC[C@H]1Nc1ccc2c(C3CCC(=O)NC3=O)nn(C)c2c1 (stereo partly drawn) [Example 74, 3-(6-(((3R,4R)-1-(5-chloro-4-((1-methyl-2-oxo-2,3-dihydro-1H-pyrrolo[2,3-b]pyridin-5-yl)amino)pyrimidin-2-yl)-3-methylpiperidin-4-yl)amino)-1-methyl-1H-indazol-3-yl)piperidine-2,6-dione]

The next lines start with the compound.

Row | Compound | Percent BCL6 remaining at maximal degradation (Ycon)
13 | CCN1C(=O)Cc2cc(Nc3nc(N4CC[C@@H](Nc5ccc6c(C7CCC(=O)NC7=O)nn(C)c6c5)[C@H](C)C4)ncc3Cl)ccc21 (stereo partly drawn) [Example 69, 3-(6-(((3R,4R)-1-(5-chloro-4-((1-ethyl-2-oxoindolin-5-yl)amino)pyrimidin-2-yl)-3-methylpiperidin-4-yl)amino)-1-methyl-1H-indazol-3-yl)piperidine-2,6-dione] | < 20%
14 | CC1CN(c2ccc3c(C4CCC(=O)NC4=O)nn(C)c3c2)C(=O)CN1c1ncc(Cl)c(Nc2ccc3c(c2)CC(=O)N3C)n1 (centres unmarked) [Example 39, 3-(6-(4-(5-chloro-4-((1-methyl-2-oxoindolin-5-yl)amino)pyrimidin-2-yl)-5-methyl-2-oxopiperazin-1-yl)-1-methyl-1H-indazol-3-yl)piperidine-2,6-dione] | > 60%
15 | CC1CN(c2ncc(Cl)c(Nc3ccc4c(c3)CC(=O)N4C)n2)CC(=O)N1c1ccc2c(C3CCC(=O)NC3=O)nn(C)c2c1 (centres unmarked) [Example 5, 3-(6-(4-(5-chloro-4-((1-methyl-2-oxoindolin-5-yl)amino)pyrimidin-2-yl)-2-methyl-6-oxopiperazin-1-yl)-1-methyl-1H-indazol-3-yl)piperidine-2,6-dione] | > 60%
16 | Cn1nc(C2CCC(=O)NC2=O)c2ccc(NC3CCN(c4ncc(Cl)c(Nc5ccc6c(c5)N(CCC(C)(C)O)C(=O)C6)n4)CC3)cc21 (centres unmarked) [Example 9, 3-[6-[[1-[5-Chloro-4-[[1-(3-hydroxy-3-methyl-butyl)-2-oxo-indolin-6-yl]amino]pyrimidin-2-yl]-4-piperidyl]amino]-1-methyl-indazol-3-yl]piperidine-2,6-dione] | > 60%
17 | C[C@@H]1CN(c2ncc(Cl)c(Nc3ccc4c(c3)CC(=O)N4C)n2)CC[C@H]1Nc1ccc2c(C3CCC(=O)NC3=O)nn(C)c2n1 (stereo partly drawn) [Example 62, 3-(6-(((3R,4R)-1-(5-chloro-4-((1-methyl-2-oxoindolin-5-yl)amino)pyrimidin-2-yl)-3-methylpiperidin-4-yl)amino)-1-methyl-1H-pyrazolo[3,4-b]pyridin-3-yl)piperidine-2,6-dione] | < 20%
18 | C[C@@H]1C[C@H](N(C)c2ccc3c(C4CCC(=O)NC4=O)nn(C)c3c2)CCN1c1ncc(Cl)c(Nc2ccc3c(c2)CC(=O)N3C)n1 (stereo partly drawn) [Example 21, 3-(6-(((2R,4R)-1-(5-chloro-4-((1-methyl-2-oxoindolin-5-yl)amino)pyrimidin-2-yl)-2-methylpiperidin-4-yl)(methyl)amino)-1-methyl-1H-indazol-3-yl)piperidine-2,6-dione] | > 60%
19 | CN1C(=O)Cc2cc(Nc3nc(N4CCC(N(C)c5ccc6c(C7CCC(=O)NC7=O)nn(C)c6c5)CC4)ncc3Cl)ccc21 (centres unmarked) [Example 7, 3-(6-((1-(5-chloro-4-((1-methyl-2-oxoindolin-5-yl)amino)pyrimidin-2-yl)piperidin-4-yl)(methyl)amino)-1-methyl-1H-indazol-3-yl)piperidine-2,6-dione] | > 60%
20 | CN1C(=O)Cc2cc(Nc3nc(N4CC[C@@H](Nc5ccc6c(C7CCC(=O)NC7=O)nn(C)c6n5)[C@H](O)C4)ncc3Cl)ccc21 (stereo partly drawn) [Example 55, 3-(6-(((3R,4R)-1-(5-chloro-4-((1-methyl-2-oxoindolin-5-yl)amino)pyrimidin-2-yl)-3-hydroxypiperidin-4-yl)amino)-1-methyl-1H-pyrazolo[3,4-b]pyridin-3-yl)piperidine-2,6-dione] | 20 to 60%
21 | CN1C(=O)Cc2cc(Nc3nc(N4CC[C@H](Nc5ccc6c(C7CCC(=O)NC7=O)nn(C)c6c5)[C@H](F)C4)ncc3Cl)ccc21 (stereo partly drawn) [Example 43, 3-(6-(((3R,4S)-1-(5-Chloro-4-((1-methyl-2-oxoindolin-5-yl)amino)pyrimidin-2-yl)-3-fluoropiperidin-4-yl)amino)-1-methyl-1H-indazol-3-yl)piperidine-2,6-dione] | > 60%
22 | Cn1nc(C2CCC(=O)NC2=O)c2ccc(NC3CCN(c4ncc(Cl)c(Nc5ccc6c(c5)CC(=O)N6CC(F)(F)F)n4)CC3)cc21 (centres unmarked) [Example 18, 3-(6-((1-(5-chloro-4-((2-oxo-1-(2,2,2-trifluoroethyl)indolin-5-yl)amino)pyrimidin-2-yl)piperidin-4-yl)amino)-1-methyl-1H-indazol-3-yl)piperidine-2,6-dione] | > 60%
23 | CN1C(=O)Cc2cc(Nc3nc(NC4CCN(c5ccc6c(C7CCC(=O)NC7=O)nn(C)c6c5)CC4)ncc3Cl)ccc21 (centres unmarked) [Example 40, 3-(6-(4-((5-Chloro-4-((1-methyl-2-oxoindolin-5-yl)amino)pyrimidin-2-yl)amino)piperidin-1-yl)-1-methyl-1H-indazol-3-yl)piperidine-2,6-dione] | > 60%
